# Experimental data reported in PubChem BioAssay (NCI).
#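 Five compound concentrations were applied to cells in 96-well plates for 48 hours; endpoints were derived by simple linear interpolation of the resulting dose-response curve. GI50: concentration for 50% inhibition of growth. TGI: concentration producing complete growth inhibition.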
# Columns and labels:
# Experiment in all cases: DTP human tumour cell line panel, 48 h
# [1] = tested on: RXF 393 renal
# [2] = tested on: KM12 colon
# [3] = tested on: HT29 colon
# [4] = tested on: MOLT-4 leukemia
# [5] = tested on: MDA-MB-435
# [6] = tested on: CCRF-CEM leukemia
# [7] = tested on: CAKI-1 renal
# [8] = tested on: OVCAR-8 ovarian
# [9] = tested on: HS 578T breast
# [10] = tested on: OVCAR-5 ovarian
# [11] = tested on: SN12C renal
# [12] = tested on: SR leukemia
# [13] = tested on: RPMI-8226 leukemia
# [14] = tested on: SK-MEL-5 melanoma
# [15] = tested on: EKVX NSCLC
# [16] = tested on: T-47D breast
# [17] = tested on: UACC-257 melanoma
# [18] = tested on: OVCAR-3 ovarian
# [19] = tested on: MCF7 breast
# [20] = tested on: A498 renal
# [21] = tested on: COLO 205 colon
# [22] = tested on: HOP-62 NSCLC
# [23] = tested on: NCI-H226 lung
# [24] = tested on: HCT-116 colon
# [25] = tested on: SF-295 CNS
# [26] = tested on: HL-60(TB) leukemia
# [27] = tested on: DU-145 prostate
# [28] = tested on: IGROV1 ovarian
# [29] = tested on: NCI-H23 lung
# [30] = tested on: K-562 leukemia
# [31] = tested on: SF-539 CNS
# [32] = tested on: NCI/ADR-RES ovarian
# [33] = tested on: 786-0 renal
# [34] = tested on: HCC-2998 colon
# [35] = tested on: SF-268 CNS
# [36] = tested on: MALME-3M melanoma
# [37] = tested on: A549 NSCLC
# [38] = tested on: SK-MEL-28 melanoma
# [39] = tested on: HCT-15 colon
# [40] = tested on: M14 melanoma
# [41] = tested on: LOX IMVI melanoma
# [42] = tested on: UACC-62 melanoma
# [43] = tested on: NCI-H522 lung
# [44] = tested on: OVCAR-4 ovarian
# [45] = tested on: SNB-19 CNS
# [46] = tested on: BT-549 breast
# [47] = tested on: SK-OV-3 ovarian
# [48] = tested on: PC-3 prostate
# [49] = tested on: U251 CNS
# [50] = tested on: TK-10 renal
# [51] = tested on: HOP-92 NSCLC
# [52] = tested on: MDA-MB-231 breast
# [53] = tested on: SW-620 colon
# [54] = tested on: SNB-75 CNS
# [55] = tested on: ACHN renal
# [56] = tested on: SK-MEL-2 melanoma
# [57] = tested on: NCI-H460 lung
# [58] = tested on: UO-31 renal
smiles,measurement,setting,value
COc1cc2c(cc1OCCCCCCN1CCN(c3ncnc4ccccc34)CC1)N=CC1CCCN1C2=O (centres undefined),GI50,[1],146 nM
same,TGI,[1],325 nM
same,GI50,[2],116 nM
same,TGI,[2],375 nM
same,GI50,[3],44.9 nM
same,TGI,[3],919 nM
same,GI50,[4],37.8 nM
same,TGI,[4],203 nM
same,GI50,[5],90.5 nM
same,TGI,[5],252 nM
same,GI50,[6],26 nM
same,TGI,[6],302 nM
same,GI50,[7],33.1 nM
same,TGI,[7],436 nM
same,GI50,[8],188 nM
same,GI50,[9],88.7 nM
same,TGI,[9],666 nM
same,GI50,[10],290 nM
same,TGI,[10],13400 nM
same,GI50,[11],155 nM
same,TGI,[11],6470 nM
same,GI50,[12],< 17.4 nM
same,TGI,[12],< 32.1 nM
same,GI50,[13],< 20.7 nM
same,TGI,[13],103 nM
same,GI50,[14],139 nM
same,TGI,[14],287 nM
same,GI50,[15],354 nM
same,TGI,[15],2010 nM
same,GI50,[16],23.7 nM
same,TGI,[16],79.2 nM
same,GI50,[17],237 nM
same,TGI,[17],14100 nM
same,GI50,[18],33.6 nM
same,TGI,[18],88 nM
same,GI50,[19],< 22.2 nM
same,TGI,[19],597 nM
same,GI50,[20],150 nM
same,TGI,[20],344 nM
same,GI50,[21],17.6 nM
same,TGI,[21],134 nM
same,GI50,[22],290 nM
same,TGI,[22],3820 nM
same,GI50,[23],125 nM
same,TGI,[23],330 nM
same,GI50,[24],55 nM
same,TGI,[24],282 nM
same,GI50,[25],50.8 nM
same,TGI,[25],1030 nM
same,GI50,[26],78.2 nM
same,GI50,[27],120 nM
same,TGI,[27],548 nM
same,GI50,[28],60.2 nM
same,TGI,[28],209 nM
same,GI50,[29],204 nM
same,TGI,[29],677 nM
same,GI50,[30],44.6 nM
same,GI50,[31],109 nM
same,TGI,[31],402 nM
same,GI50,[32],899 nM
same,GI50,[33],141 nM
same,TGI,[33],649 nM
same,GI50,[34],191 nM
same,TGI,[34],520 nM
same,GI50,[35],201 nM
same,TGI,[35],3480 nM
same,GI50,[36],158 nM
same,TGI,[36],376 nM
same,GI50,[37],275 nM
same,TGI,[37],5550 nM
same,GI50,[38],193 nM
same,TGI,[38],510 nM
same,GI50,[39],493 nM
same,TGI,[39],2390 nM
same,GI50,[40],171 nM
same,TGI,[40],1220 nM
same,GI50,[41],31.9 nM
same,TGI,[41],1000 nM
same,GI50,[42],143 nM
same,TGI,[42],326 nM
same,GI50,[43],< 14.5 nM
same,TGI,[43],135 nM
same,GI50,[44],130 nM
same,TGI,[44],2050 nM
same,GI50,[45],208 nM
same,TGI,[45],3540 nM
same,GI50,[46],42.2 nM
same,TGI,[46],227 nM
same,GI50,[47],637 nM
same,TGI,[47],7470 nM
same,GI50,[48],50.8 nM
same,TGI,[48],742 nM
same,GI50,[49],73.6 nM
same,TGI,[49],1050 nM
same,GI50,[50],155 nM
same,TGI,[50],1880 nM
same,GI50,[51],45.6 nM
same,TGI,[51],408 nM
same,GI50,[52],42.5 nM
same,TGI,[52],394 nM
same,GI50,[53],93.5 nM
same,TGI,[53],566 nM
same,GI50,[54],40.7 nM
same,TGI,[54],256 nM
same,GI50,[55],345 nM
same,TGI,[55],12300 nM
same,GI50,[56],195 nM
same,TGI,[56],1830 nM
same,GI50,[57],110 nM
same,TGI,[57],728 nM
CCN=c1cc2sc3cc(NCC)c(C)cc3nc-2cc1C,GI50,[1],3220 nM
same,TGI,[1],18000 nM
same,GI50,[2],654 nM
same,TGI,[2],11000 nM
same,GI50,[3],2980 nM
same,TGI,[3],10400 nM
same,GI50,[4],714 nM
same,TGI,[4],> 100000 nM
same,GI50,[5],1550 nM
same,TGI,[5],4330 nM
same,GI50,[6],760 nM
same,TGI,[6],17400 nM
same,GI50,[7],1340 nM
same,TGI,[7],4600 nM
same,GI50,[8],1220 nM
same,TGI,[8],11800 nM
same,GI50,[9],2140 nM
same,TGI,[9],15200 nM
same,GI50,[10],2510 nM
same,TGI,[10],9260 nM
same,GI50,[11],1500 nM
same,TGI,[11],12500 nM
same,GI50,[12],1010 nM
same,TGI,[12],> 100000 nM
same,GI50,[13],233 nM
same,TGI,[13],3450 nM
same,GI50,[14],475 nM
same,TGI,[14],1930 nM
same,GI50,[15],632 nM
same,TGI,[15],4530 nM
same,GI50,[16],580 nM
same,TGI,[16],10500 nM
same,GI50,[17],1660 nM
same,TGI,[17],6550 nM
same,GI50,[18],149 nM
same,TGI,[18],714 nM
same,GI50,[19],242 nM
same,TGI,[19],937 nM
same,GI50,[20],14000 nM
same,TGI,[20],53400 nM
same,GI50,[21],2150 nM
same,TGI,[21],7780 nM
same,GI50,[22],2090 nM
same,TGI,[22],7340 nM
same,GI50,[23],10100 nM
same,TGI,[23],29000 nM
same,GI50,[24],361 nM
same,TGI,[24],2010 nM
same,GI50,[25],669 nM
same,TGI,[25],4810 nM
same,GI50,[26],1660 nM
same,TGI,[26],8480 nM
same,GI50,[27],1970 nM
same,TGI,[27],4160 nM
same,GI50,[28],2400 nM
same,TGI,[28],9210 nM
same,GI50,[29],437 nM
same,TGI,[29],3690 nM
same,GI50,[30],358 nM
same,TGI,[30],16300 nM
same,GI50,[31],434 nM
same,TGI,[31],10200 nM
same,GI50,[32],1770 nM
same,TGI,[32],7310 nM
same,GI50,[33],3100 nM
same,TGI,[33],15500 nM
same,GI50,[34],3500 nM
same,TGI,[34],11800 nM
same,GI50,[35],2470 nM
same,TGI,[35],14400 nM
same,GI50,[36],782 nM
same,TGI,[36],3880 nM
same,GI50,[37],1840 nM
same,TGI,[37],10900 nM
same,GI50,[38],11700 nM
same,TGI,[38],25600 nM
same,GI50,[39],489 nM
same,TGI,[39],9510 nM
same,GI50,[40],636 nM
same,TGI,[40],2740 nM
same,GI50,[41],746 nM
same,TGI,[41],4280 nM
same,GI50,[42],6880 nM
same,TGI,[42],21800 nM
same,GI50,[43],419 nM
same,TGI,[43],2610 nM
same,GI50,[44],237 nM
same,TGI,[44],2310 nM
same,GI50,[46],2870 nM
same,TGI,[46],19900 nM
same,GI50,[47],2580 nM
same,TGI,[47],12600 nM
same,GI50,[48],133 nM
same,TGI,[48],4720 nM
same,GI50,[49],646 nM
same,TGI,[49],6710 nM
same,GI50,[58],2160 nM
same,TGI,[58],16400 nM
same,GI50,[50],2040 nM
same,TGI,[50],6940 nM
same,GI50,[51],652 nM
same,TGI,[51],5620 nM
same,GI50,[52],334 nM
same,TGI,[52],11100 nM
same,GI50,[53],694 nM
same,TGI,[53],12800 nM
same,GI50,[54],1800 nM
same,TGI,[54],5110 nM
same,GI50,[55],1580 nM
same,TGI,[55],10600 nM
same,GI50,[56],1820 nM
same,TGI,[56],4640 nM
same,GI50,[57],821 nM
same,TGI,[57],5000 nM
